Measured values taken from US4849227A, “Pharmaceutical compositions” (Eurasiam Laboratories, Inc., priority 1987, dated 1989).
Like-named read-outs stand apart in the source and are kept apart here.

Key:
venous serum sugar level = experiment: Test 1-C: bioassay in pigs, serum sugar level; assay type: in vivo, Yorkshire pigs; settings: 8 I.U. intravenously
Text: FIG. 7 is a comparison of the venous serum sugar levels of two pigs, one given the composition of Example 1 and one given Actrapid. The venous serum sugar level of the pig given Example 1 is denoted by "o" and the venous serum sugar level of the pig given actrapid is denoted by "x". The x axis is in minutes and the y axis is in millimoles of serum glucose.
In this test, the oral insulin composition of Example 1 was compared with Actripid intravenous insulin solution (Novo) in a bioassay. Two Yorkshire pigs were fasted overnight and one pig was given 8 I.U. of the Actripid insulin intravenously. The other pig was given an intravenous infusion over a period of 15 minutes of 8 I.U. of the oral insulin composition of Example 1 that had been dissolved into 50 ml of water. Blood was taken from the pair of pigs and the serum sugar levels were measured. […] (See FIG. 7.)

plasma glucose level = experiment: Test 12B: plasma glucose in a female dog; assay type: in vivo
Method: Hypoglycemic action of the formulation was compared to that of intra-duodenally administered regular injectable insulin (novo actrapid insulin, 1.0 IU per Kg) and of intravenously administered regular injectable insulin (novo actrapid insulin, 0.5 IU per Kg). After infusion of 1.26 IU of regular injectable insulin, intravenously, the plasma glucose level dropped from […] within 20 minutes and returned to […] within 3 hours. Then, 6 IU of regular injectable insulin was intra-duodenally given.

[1] = system: blood sugar (hypoglycemic effect); experiment: Test 1-D: intravenous rabbit bioassay; assay type: in vivo, white rabbits; settings: rabbits, 4 I.U. i.v.; after completion of the infusion
Method: FIG. 8 is a comparison of Tong-Shin insulin, the oral insulin of Example 1, and Novo insulin, pursuant to the test of Test 1-D.
In this test, the oral insulin composition of Example 1 was compared with Novo monocomponent porcine crystalline insulin and a regular injectable insulin-40 (Tong-Shin Pharmaceutical Co.) in intravenous rabbit bioassays. Three white rabbits, each weighing 1.8 Kg were fasted overnight and were treated with an intravenous infusion over ten minutes of 4 I.U. of either the Novo insulin, the Tong-Shin insulin-40, or an emulsion comprising the oral insulin composition of Example 1. A venous blood sample was collected from the ear vein of each of the rabbits at 30 minutes prior to the insulin infusion and at times 0, 15, 30, 45, 60, 75, 90 and 105 minutes after completion of the infusions.

blood glucose levels = experiment: Test 1-E: oral insulin in healthy male volunteers, blood glucose; assay type: in vivo, human
Method: In this test, the oral insulin composition of Example 1 was administered orally to two healthy male volunteers.
Two healthy volunteers, weighing 52 and 54 Kg participated in the study. Each subject received a 16 I.U. dose of the oral insulin composition of Example 1 during the study. Along with the oral insulin composition of Example 1, each participant received two capsules of lipolytic enzymes. Each capsule consisted of:
The enzyme capsules were made as follows: Pancreatic Lipase was coated with 0.1 to 0.3 microns thick coating of hydroxypropylecellulose and enteric coated with the coating of Example 1. Amylase and Protease were then added. The resultant composition was then coated with 0.1 micron of hydroxypropylcellulose. Bile Salts that had been coated with 0.1 micron of hydroxypropylcellulose was then added to a hard gel capsule with the Pancreatic Lipase resultant product.
At 7:30 am on the day of the trial, each participant consumed a standard breakfast consisting of two fried eggs, two strips of bacon, two slices of toasted dark bread, a tablespoon of butter, and cup of black coffee. The insulin composition of Example 1 was administered orally at 10:00 am to both subjects. The oral insulin was administered in capsules comprising 16 I.U. of Novo crystalline monocomponent porcine insulin. At 12:00 both subjects consumed a standard lunch consisting of 180 gm of beef steak, a tossed green salad with oil and vinegar dressing, a piece of dark bread, and black coffee.
Blood samples were collected from the subject at 10:00, 13:00 and 16:00 and were analyzed for blood glucose levels.
One week later, both volunteers had the standard breakfast (i.e., the breakfast given on the first day of the test) at the same time. At 10:00 both subjects received a subcutaneous injection of 16 I.U. of Tong-Shin regular injectable insulin-40. At approximately 10:30 both subjects began to experience hypoglycemic reactions which lasted for roughly two hours. Both subjects were served pure orange juice at 11:20 and were served the standard lunch at 12:00.

serum glucose = experiment: Test 5-A: hypoglycemic effects (serum glucose); assay type: in vivo, human
Method: (§1) The bioavailability of insulin and its corresponding hypoglycemic effects of Example 4 and Example 5 oral insulin preparations were studied in a group of IDDM and NIDDM patients. Example 4 oral insulin was also studied in two normal, healthy male volunteers. In all of the tests set forth in 5-A, the subjects received with each dose of oral insulin two capsules of the lipolytic enzyme of Test 1-E.
(§2) At least 12 or 24 hours prior to the study the patients normal anti-diabetic therapeutic agents were withheld from the patients. After overnight fasting and fasting throughout the entire period of the study, Example 4 or Example 5 oral insulin preparations were orally administered.
(§3) A venous sampling catheter was placed into a vein, usually at the antecubital vein, and blood samples were drawn at time 0, 1.0, 1.5, 2.0, 2.5, 3.0, 4.0 and/or 5.0 hours after the drug administration. Serum glucose was measured on a Gilfordx400, and serum insulin was analyzed by using an Immuno-Enzymatic o-Phenylendiamine (OPD) method and Insulin-B test kit of WAKO (Japan). All measurements were made in duplicate.
(§4) As stated above, two healthy male volunteers […] participated in the study. One subject received the oral insulin of Example 4 twice over a two week period, once each week, receiving 0.20 and 0.27 IU per Kg of the oral insulin. […] Serum insulin level was peaked to 20 micro-U per ml occurring at 1.5 hours after the drug ingestion on both occasions.
The second volunteer received 10 IU of regular injectable insulin-40 (of Tong Shin Pharm. Co. of Seoul, Korea), subcutaneously. […] They were given a glass of fresh orange juice and serum glucose level rose to about 115 mg/dl within one hour.
(§5) Five IDDM Patients have completed all three phases of the study of test 5-A: i.e., they received 10 IU, subcutaneous injection of regular injectable insulin-40 (of Tong Shin Pharm Co. of Seoul, Korea) the first week; they received one single oral dosing of Example 4 (0.544 IU/kg average dose) one week later; and the next week they received 9 consecutive dosings of Example 4 (average dose was 0.544 IU/kg), given at 6-hour intervals.
The Oral Insulin Example 4 was given to a total of 8 IDDM patients (10 trials) (two repeated the study) and 7 NIDDM patients (11 trials) (four patients repeated the study).
Seven IDDM Patients completed the study after oral administration of a single dose of the Example 5 oral insulin preparation.

[2] = Test 5-A: bioavailability of insulin (serum insulin); assay type: in vivo, human; settings: Regular Insulin 0.172 IU/Kg s.c.; Example 4 0.544 IU/Kg oral 1st dose; Example 5 0.649 IU/Kg oral 1st, fasting
Method: as §1, §2, §3, §4, §5

serum glucose levels = experiment: Test 8: serum glucose in IDDM patients; assay type: in vivo, human; settings: Regular Insulin 0.172 IU/Kg s.c., Oral Insulin 0.649 IU/Kg
Text: Seven Insulin-Dependent Diabetics (IDDM) patients, 6 males and one person, between 24 to 47 years old (average 34.4) weighing between 48 and 68 Kg each (average 58.6 kg) took between 32 to 48 (average 42.6) International Units of Oral Insulin Formulation of Example 7, orally, after fasting overnight and fasting throughout the study.
(§6) Each subject in Test 8 was given two capsules of the lipolytic enzyme composition set forth in Test 1-E with each dose of oral insulin.

[3] = Test 8: bioavailability of insulin (insulin levels in serum); assay type: in vivo, human; settings: Reg. Insulin 0.172 IU/Kg s.c.; Oral Insulin 0.630 IU/Kg; IDDM
Method: In two IDDM patients, bioavailability of insulin (insulin levels in serum) was measured after oral administration of Oral Insulin Formulation of Example 7 (0.63 I.U./Kg).
Compared to 0.172 IU/Kg of Regular Insulin, subcutaneous injection in 5 IDDM patients, the `pharmacokinetic and bioavailability` of insulin are as follows:
as §6

hypoglycemic response [4] = settings: oral, 150 IU/Kg, rabbits; cited from earlier work
hypoglycemic response [5] = settings: aerosol, 2.5 U/Kg, rabbits; cited from earlier work
[6] = buccal, cocoa fat base and surfactant, dogs; cited from earlier work
[7] = intra-nasal, dogs; cited from earlier work
hypoglycemic effect [8] = settings: oral with isopropylfruorophosphate and indole-3-acetate, rats; cited from earlier work
hypoglycemic response [9] = settings: oral with pancreas inactivating agents; cited from earlier work
blood sugar level = settings: oral with surfactants; cited from earlier work
hypoglycemic effect [10] = settings: water/oil/water emulsion, rats; cited from earlier work
[11] = cited from earlier work
hypoglycemic effect [12] = settings: other emulsion systems with fat soluble vitamins, dogs; cited from earlier work
[13] = Regular Insulin 0.172 IU/Kg s.c., Example 4 0.544 IU/Kg oral 1st dose, Example 5 0.649 IU/Kg oral 1st, fasting

Actripid insulin: intravenous insulin solution (Novo)
decrease of venous serum sugar level, compared between the two insulins (venous serum sugar level): decreased by roughly an equal degree
plasma glucose level before infusion (plasma glucose level; 1.26 IU intravenous): 102 mg/dL
plasma glucose level, return (plasma glucose level; 1.26 IU intravenous, within 3 hours): 100 mg/dL
change of blood glucose level (plasma glucose level; 6 IU intra-duodenal, over three hours): No changes in the blood glucose levels

Novo insulin: Novo monocomponent porcine crystalline insulin
time of peak hypoglycemic effect [1]: ≤ 30 min

Regular Insulin
time of peak hypoglycemic effect [1]: 60 min
duration of hypoglycemic reactions (blood glucose levels; 16 I.U. subcutaneous): roughly two
time of peak hypoglycemic effect (blood glucose levels; 16 I.U. subcutaneous): roughly 3 hours
blood glucose / effect after six hours (blood glucose levels; 16 I.U., 6 hours): the effect disappeared by 6 hours after administration
CO, base value of Serum Glucose (serum glucose; [13]): 271 mg/dL
Cmin, minimum value of glucose (serum glucose; [13]): 94.5 mg/dL
T100, time to reach 100 mg/dl of serum glucose (serum glucose; [13]): 2.1
TC-min, time of observing the minimum glucose level (serum glucose; [13]): 4.0
dC/dT, rate of reduction in Serum Glucose levels (serum glucose; [13]): 59.16
time of insulin-induced shock symptoms (serum glucose; healthy volunteer, 10 IU subcutaneous): 72 min
serum glucose at time of shock symptoms (serum glucose; healthy volunteer, 10 IU subcutaneous, 72 minutes): 47 mg/dL
serum glucose after orange juice (serum glucose; healthy volunteer, 10 IU subcutaneous, within one hour of orange juice): about 115 mg/dl
IO, base value of Serum Insulin [2]: 8.0 micro-U/ml
Imax, maximum value of insulin [2]: 20.3 micro-U/ml
TI-O, time to reach the base value of Serum Insulin level [2]: 4.8
TI-max, time to reach the maximum Serum insulin level [2]: 1.5
dI/dT, rate of rise of serum insulin level [2]: 38.29
CO (printed 00), base value of glucose (serum glucose levels): 271 Mg/dl
Cmin, minimum value of glucose observed (serum glucose levels): 94.5 Mg/dl
T100, time to reach 100 mg/dl (serum glucose levels): 2.1
TC-min, time of observing the minimum glucose level (serum glucose levels): 4.0
dC/dT, rate of hypoglycemic action (serum glucose levels): 59.16
IO, base value of insulin [3]: 8.0 micro-U/ml
Imax, maximum value of serum insulin [3]: 20.3 micro-U/ml
TI-O, time to reach the base value of serum insulin [3]: 4.8
TI-max, time of observing the maximum value of serum insulin [3]: 1.5
dI/dt, rate of rise of serum insulin (absorption rate) [3]: 38.29

beta-Naphthyl-azo-Polystearryle-insulin
hypoglycemic response (hypoglycemic response [4]): induced a hypoglycemic response

insulin
hypoglycemic response (hypoglycemic response [5]): induced hypoglycemic response
bioavailability [6]: only poor bioavailability
bioavailability [7]: high bioavailability
hypoglycemic effect (hypoglycemic effect [8]): induce a hypoglycemic effect
bioavailability equivalent of hypoglycemic response (hypoglycemic response [9]): 3%
intravenous dose with effect on blood sugar equivalent to 35 units orally (blood sugar level): 4 units
intramuscular dose with effect equivalent to 250 IU/Kg orally (hypoglycemic effect [10]): 10 IU/Kg
bioactivity after oral administration [11]: low bioactivities
hypoglycemic effects (hypoglycemic effect [12]): mild and not dose responsive
